Measured values from patent US8105835B2, “Method for micropropagation of monocots based on sustained totipotent cell cultures” (The University of South Carolina, priority 2007, dated 2012).

Tests used:
[1] = system: Arundo donax explants (cross-sectional segments of immature inflorescence); assay: Phosphinothricin selection of explants on primary solid culture medium; type: cell-based; conditions: 10 mg/L, four weeks selection, FIG. 6A
Procedure: Agrobacterium tumefaciens carrying the plasmid, pMSF3022, was used to transform Arundo donax explants (cross-sectional segments of immature inflorescence). Plasmid pMSF3022 carries the bar gene that confers resistance to phosphinothricin and provides a positive selection and the gfp (green fluorescent protein) gene which provides a visual selection of transformants. Antibiotic resistant transformants were selected for four weeks after gene transfer by incubating the explants on primary solid culture medium with or without phosphinothricin and containing ticarcillin at […] concentration to eliminate residual Agrobacterium. As shown in FIG. 6A control explants (untransformed) were killed by 10 mg/L of phosphinothricin (antibiotic/herbicide). In the absence of the antibiotic/herbicide, the control explants develop embryogenic callus (FIG. 6B). In contrast, the explants that were cocultivated with the A. tumefaciens carrying the plasmid, pMSF3022 (transformed), were able to develop embryogenic callus in the presence of 10 mg/L of phosphinothricin (FIG. 6C).

[2] = system: monocot embryogenic cell culture; assay: Transfer of culture from auxin plus cytokinin medium to medium with cytokinin only; type: cell-based; conditions: medium without auxin but maintaining the cytokinin
Procedure: As known to those of skill in the art, cytokinins, both natural and synthetic, are used to induce shoot formation while inhibiting root formation (Trigiano and Gray, Plant tissue culture concepts and laboratory exercises. Second ed., Boca Raton: CRC Press (2000)).
In one embodiment, the tertiary medium is prepared by adding to sterile water (a) the cytokinin, thidiazuron; (b) sucrose, 30 g/l; (c) Miller's salt solution (6% w/v, KH2 PO4), about 3 ml; and (d) MS salts, 4.3 g/l. In one embodiment the concentration of the thidiazuron is from about 0.01 mg/l to about 1 mg/l. In another embodiment, the concentration of the thidiazuron is about 0.02 mg/l.

Row | Structure (SMILES) | effect on control (untransformed) explants [1] | effect on shoot elongation and root formation [2]
1 | CP(=O)(O)CC[C@H](N)C(=O)O [phosphinothricin] | killed | 
2 | O=C(Nc1ccccc1)Nc1cnns1 [thidiazuron] |  | not only was shoot elongation promoted but unexpectedly root formation also resulted
